From patent US7985767B2, “Therapeutic amides” (Allergan, Inc., priority 2006, dated 2011)

What was measured:
hTP = biological target: T1, hTP (Homo sapiens, UniProt P21731); test: Other receptors functional EC50, hTP; assay type: cell-based
T1 sequence (P21731 1-343): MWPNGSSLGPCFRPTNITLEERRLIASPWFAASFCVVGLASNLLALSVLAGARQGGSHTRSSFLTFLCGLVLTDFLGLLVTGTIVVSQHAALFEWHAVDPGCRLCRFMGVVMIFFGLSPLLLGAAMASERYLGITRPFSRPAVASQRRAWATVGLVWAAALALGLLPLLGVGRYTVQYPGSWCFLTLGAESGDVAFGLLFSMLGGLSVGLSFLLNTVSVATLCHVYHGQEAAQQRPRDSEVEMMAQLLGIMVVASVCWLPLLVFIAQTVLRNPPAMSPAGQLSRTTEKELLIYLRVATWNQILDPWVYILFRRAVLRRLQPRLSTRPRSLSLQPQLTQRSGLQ
Text: (§1) U.S. patent application Ser. No. 11/553,143, filed on Oct. 26, 2006, incorporated by reference herein, describes the methods used to obtain the in vitro data in the table below.

EP2 = EP2 (Homo sapiens, UniProt P43116); test: EP2 binding (Ki)
EP2, sequence (P43116 whole entry): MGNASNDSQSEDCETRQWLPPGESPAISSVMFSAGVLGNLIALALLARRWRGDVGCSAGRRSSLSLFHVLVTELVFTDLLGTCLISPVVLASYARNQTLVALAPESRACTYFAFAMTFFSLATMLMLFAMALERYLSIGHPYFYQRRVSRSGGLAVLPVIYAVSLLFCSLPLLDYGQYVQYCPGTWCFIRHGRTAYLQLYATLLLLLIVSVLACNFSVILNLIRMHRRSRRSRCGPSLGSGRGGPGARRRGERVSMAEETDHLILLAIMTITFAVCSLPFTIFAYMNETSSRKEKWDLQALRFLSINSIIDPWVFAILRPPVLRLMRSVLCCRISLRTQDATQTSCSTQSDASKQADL
Text: as §1

hDP = biological target: T2, hDP (Homo sapiens, UniProt Q13258); test: Other receptors functional EC50, hDP; assay type: cell-based
T2 sequence (Q13258 1-359): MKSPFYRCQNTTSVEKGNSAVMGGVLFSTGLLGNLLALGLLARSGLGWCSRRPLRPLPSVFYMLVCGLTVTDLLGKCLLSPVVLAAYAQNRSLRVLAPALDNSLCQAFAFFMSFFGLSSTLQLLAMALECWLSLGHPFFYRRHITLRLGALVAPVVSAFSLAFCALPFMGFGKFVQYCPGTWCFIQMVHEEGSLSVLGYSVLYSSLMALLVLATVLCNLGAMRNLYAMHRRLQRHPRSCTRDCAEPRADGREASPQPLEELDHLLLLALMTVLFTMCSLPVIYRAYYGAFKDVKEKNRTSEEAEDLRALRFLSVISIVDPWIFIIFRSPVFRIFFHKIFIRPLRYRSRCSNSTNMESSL
Text: as §1

| EC50 (hTP) [µM] | Ki (EP2) [µM] | EC50 (hDP) [µM] | Compound |
| --- | --- | --- | --- |
| 8.53 | – | – | CCCCCC(O)c1ccc(N(CC#CCCCC(=O)O)C(C)=O)cc1 (stereo not drawn) [7-(N-(4-(1-hydroxyhexyl)phenyl)acetamido)hept-5-ynoic acid] |
| – | > 10 | 4.76 | CCCCCC(O)c1ccc(N(CCCc2ccc(C(=O)O)s2)C(C)=O)cc1 (stereo not drawn) [5-(-3-(N-(4-(1-hydroxyhexyl)phenyl)acetamido)propyl)thiophene-2-carboxylic acid] |
